In general, DC50 refers to the concentration at which degradation of the target reaches its halfway point. A lower DC50 goes with degradation at low concentration. The Dmax is the largest share of the target that was removed. A higher Dmax goes with deep degradation. Usually IC50 stands for the concentration that inhibits the measured activity by half. Higher therefore signals a need for much substance.

The results in this text go back to patent publication US20240425523A1, “Compounds for the Degradation of EGFR Kinase” (Beigene Switzerland GMBH, priority 2023, published 2024).

Holding throughout (format): cell-based
Assay [1] addresses T1, EGFR-L858R/C797S (H1975-clone #8 cells) (Homo sapiens, UniProt P00533, C797S/L858R).
T1 construct: expressed in transfected cells; host or cells: H1975 (endogenous EGFR knocked out, clone #8)
In words: Cell degradation of EGFR, HTRF assay, H1975-clone#8 (L858R/C797S) cells. The settings on record: 16 h treatment; for DC50: EGFR degradation; for Dmax: maximum percentage of degradation.

Assay [2] deals with p-EGFR Del19/C797S (H1975-clone #23 cells) (Homo sapiens, UniProt P00533). The experiment in a line: Cell p-EGFR inhibition assay, HTRF, H1975-clone#23 (DEL19/C797S) cells. The settings on record: 16 h treatment; for Imax (%): maximum percentage of pEGFR inhibition; for IC50: pEGFR inhibition. A digest of the protocol: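 Phospho-EGFR read by overnight HTRF on lysates, normalized to DMSO-treated high control; IC50, Hill slope and Imax fitted. Compounds were applied for 16 h (10 uM top, 5-fold steps, 8 doses) to an H1975 single clone carrying only exogenous Del19/C797S EGFR after sgRNA knockout of endogenous copies.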

The target in assay [3] is T2, EGFR L858R (BaF3-L858R cells) (Homo sapiens, UniProt P00533, L858R).
T2 construct: host or cells: BaF3
In words: Cell degradation of EGFR, HTRF assay, BaF3-L858R cells. The settings on record: 16 h treatment; for DC50: EGFR degradation; for Dmax: maximum percentage of degradation. In outline:
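BaF3-L858R cells treated 16 h at 37° C, 5% CO2 with compound (top 10 uM final, 5-fold, 8 doses, 0.1% DMSO). DC50 from four-parameter fit; Dmax is maximum percent degradation.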
A general note: TR-FRET usually uses a lanthanide donor and a delayed reading to cut background.

Assay [4] concerns the target T3, p-EGFR L858R (BaF3-L858R cells) (Homo sapiens, UniProt P00533, L858R).
T3 construct: host or cells: BaF3
The experiment in a line: Cell p-EGFR inhibition assay, HTRF, BaF3-L858R cells. The settings on record: 16 h treatment; for Imax (%): maximum percentage of pEGFR inhibition; for IC50: pEGFR inhibition. In outline:
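BaF3-L858R cells treated 16 h at 37 °C, 5% CO2 with compound from 10 uM top, 5-fold dilutions, 8 doses, in 0.1% DMSO medium. Lysates read overnight by HTRF p-EGFR antibodies; IC50 fitted to four-parameter curve against DMSO high control.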

In assay [1], `Cc1cc2cc(n1)-c1cnn(C)c1OC[C@H]1CCC(C1)CN1/C(=N/C2=O)Nc2ccc(N3CCN(C4CCN(c5cc(F)c(C6CCC(=O)NC6=O)c(F)c5)CC4)[C@@H](C)C3)cc21` (stereo partly drawn) [Example 119, (R)-3-(4-(4-((S)-4-((7^1R,7^3S,E)-1^1,2^6-dimethyl-3-oxo-5^2,5^3-dihydro-1^1H,5^1H-9-oxa-4-aza-5(2,1)-benzo[d]imidazola-2(2,4)-pyridina-1(4,5)-pyrazola-7(1,3)-cyclopentanacyclononaphane-5^6-yl)-2-methylpiperazin-1-yl)piperidin-1-yl)-2,6-difluorophenyl)piperidine-2,6-dione] showed a DC50 of 2.3 nM and a Dmax of 74.6%. In assay [2], the “Imax (%)” value stood at 100.8% and the IC50 came out at 0.6 nM. For the same molecule, in assay [3], the DC50 is 2.47 nM and the Dmax came out at 77%. For the same molecule, in assay [4], the “Imax (%)” value is 94.3% and the midpoint of inhibition, the IC50, lay at 18.2 nM.
In assay [1], `Cc1cc2cc(n1)-c1cnn(C)c1OC[C@H]1CC[C@H](C1)CN1/C(=N/C2=O)Nc2ccc(N3CCC(N4CC(Nc5cc(F)c([C@H]6CCC(=O)NC6=O)c(F)c5)C4)CC3)cc21` [Example 112, (R)-3-(4-((1-(1-((7^1R,7^3S,E)-1^1,2^6-dimethyl-3-oxo-5^2,5^3-dihydro-1^1H,5^1H-9-oxa-4-aza-5(2,1)-benzo[d]imidazola-2(2,4)-pyridina-1(4,5)-pyrazola-7(1,3)-cyclopentanacyclononaphane-5^6-yl)piperidin-4-yl)azetidin-3-yl)amino)-2,6-difluorophenyl)piperidine-2,6-dione] returned a DC50 of 0.41 nM and a Dmax of 67.5%. In assay [2], the “Imax (%)” value amounted to 98.9% and the IC50 came to 0.4 nM. Moreover, in assay [3], the 50% degradation concentration (DC50) was determined as 2.2 nM and the Dmax was found to be 72.8%. For the same molecule, in assay [4], the “Imax (%)” value is on record as 104.4% and half-maximal inhibition (IC50) required 15.4 nM.
For the molecule `Cc1cc2cc(n1)-c1cnn(C)c1OC[C@H]1CC[C@H](C1)CN1/C(=N/C2=O)Nc2ccc(N3CCN(C4CCN(c5ccc(NC6CCC(=O)NC6=O)cc5F)CC4)CC3)cc21` (stereo partly shown) [Example 59, 3-((4-(4-(4-((7^1R,7^3S,E)-1^1,2^6-dimethyl-3-oxo-5^2,5^3-dihydro-1^1H,5^1H-9-oxa-4-aza-5(2,1)-benzo[d]imidazola-2(2,4)-pyridina-1(4,5)-pyrazola-7(1,3)-cyclopentanacyclononaphane-5^6-yl)piperazin-1-yl)piperidin-1-yl)-3-fluorophenyl)amino)piperidine-2,6-dione], in assay [1], the DC50 amounted to 2.87 nM and the Dmax was 69%. Also, in assay [2], the “Imax (%)” value came to 99.6% and the IC50 came to 0.7 nM. Further, in assay [3], the DC50 is 3.18 nM and the Dmax stood at 85.1%. Also, in assay [4], the “Imax (%)” value stood at 102.5% and the midpoint of inhibition, the IC50, lay at 7 nM.
In assay [1], `Cc1cc2cc(n1)-c1cnn(C)c1OC[C@H]1CCC(C1)CN1/C(=N/C2=O)Nc2ccc(N3CCN([C@H]4CCN(c5cc(F)c([C@H]6CCC(=O)NC6=O)c(F)c5)C[C@H]4F)CC3)cc21` (single isomer, unassigned) [Example 84] registered a DC50 of 2.1 nM and a maximal degradation (Dmax) of 64.7%. In assay [2], the “Imax (%)” value is on record as 100.5% and the IC50 was 0.5 nM. In assay [3], this molecule returned a DC50 of 4.01 nM and a Dmax of 79.7%. Further, in assay [4], the “Imax (%)” value is 109.3% and the IC50 was found to be 6 nM.
With `Cc1cc2cc(n1)-c1cnn(C)c1OC[C@H]1CCC(C1)CN1/C(=N/C2=O)Nc2cc(C)c(N3CCN([C@@H]4CCN(c5ccc(C6CCC(=O)NC6=O)nc5C)C[C@@H]4F)CC3)cc21` (stereo partly drawn) [Example 102, 3-(5-((3S,4R)-3-fluoro-4-(4-((7^1R,7^3S,E)-1^1,2^6,5^5-trimethyl-3-oxo-5^2,5^3-dihydro-1^1H,5^1H-9-oxa-4-aza-5(2,1)-benzo[d]imidazola-2(2,4)-pyridina-1(4,5)-pyrazola-7(1,3)-cyclopentanacyclononaphane-5^6-yl)piperazin-1-yl)piperidin-1-yl)-6-methylpyridin-2-yl)piperidine-2,6-dione], in assay [1], the DC50 was determined as 0.76 nM and the Dmax was 91.5%. In addition, in assay [2], the “Imax (%)” value was found to be 100.5% and the IC50 came out at 0.6 nM. In assay [3], this molecule came in with a DC50 of 0.59 nM and a Dmax of 85.8%. Besides, in assay [4], the “Imax (%)” value is reported as 95% and the IC50 was 1.5 nM.
Turning to `Cc1cc2cc(n1)-c1c(C)nn(C)c1OC[C@H]1CC[C@H](C1)CN1/C(=N/C2=O)Nc2ccc(N3CCN(C4CCN(c5cc(F)c([C@H]6CCC(=O)NC6=O)c(F)c5)CC4)[C@@H](CC#N)C3)cc21` [Example 163, 2-((S)-1-(1-(4-((R)-2,6-dioxopiperidin-3-yl)-3,5-difluorophenyl)piperidin-4-yl)-4-((7^1R,7^3S,E)-1^1,1^3,2^6-trimethyl-3-oxo-5^2,5^3-dihydro-1^1H,5^1H-9-oxa-4-aza-5(2,1)-benzo[d]imidazola-2(2,4)-pyridina-1(4,5)-pyrazola-7(1,3)-cyclopentanacyclononaphane-5^6-yl)piperazin-2-yl)acetonitrile], in assay [1], the DC50 came to 2.97 nM and the Dmax is 82.5%. Besides, in assay [2], the “Imax (%)” value stood at 96.05% and the midpoint of inhibition, the IC50, lay at 0.6 nM. In assay [3], this molecule had a DC50 of 4.4 nM and a Dmax of 88.1%. Besides, in assay [4], the “Imax (%)” value is reported as 94.53% and the IC50 was found to be 2.24 nM.
Take `Cc1cc2cc(n1)-c1cnn(C)c1OC[C@H]1CCC(C1)CN1/C(=N/C2=O)Nc2ccc(N3CCN([C@@H]4CCN(c5ccc(OC6CCC(=O)NC6=O)cc5F)C[C@@H]4F)CC3)cc21` (stereo partly drawn) [Example 115, 3-(4-((3S,4R)-4-(4-((7^1R,7^3S,E)-1^1,2^6-dimethyl-3-oxo-5^2,5^3-dihydro-1^1H,5^1H-9-oxa-4-aza-5(2,1)-benzo[d]imidazola-2(2,4)-pyridina-1(4,5)-pyrazola-7(1,3)-cyclopentanacyclononaphane-5^6-yl)piperazin-1-yl)-3-fluoropiperidin-1-yl)-3-fluorophenoxy)piperidine-2,6-dione]: in assay [1], it took 2.84 nM to reach half-maximal degradation (DC50) and the Dmax turned out to be 81.1%. Also, in assay [2], the “Imax (%)” value is 99.8% and inhibition was half-maximal at 1.3 nM (IC50). Further, in assay [3], half-maximal degradation (DC50) was put at 1.6 nM and the Dmax turned out to be 81.9%. In addition, in assay [4], the “Imax (%)” value came out at 97.7% and the IC50 amounted to 3.9 nM.
Regarding `COC[C@@H]1CN(c2ccc3c(c2)N2CC4CC[C@H](COc5c(cnn5C)-c5cc(cc(C)n5)C(=O)/N=C/2N3)C4)CCN1C1CCN(c2ccc(NC3CCC(=O)NC3=O)cc2C)CC1` (stereo partly drawn) [Example 118, 3-((4-(4-((S)-4-((7^1R,7^3S,E)-1^1,2^6-dimethyl-3-oxo-5^2,5^3-dihydro-1^1H,5^1H-9-oxa-4-aza-5(2,1)-benzo[d]imidazola-2(2,4)-pyridina-1(4,5)-pyrazola-7(1,3)-cyclopentanacyclononaphane-5^6-yl)-2-(methoxymethyl)piperazin-1-yl)piperidin-1-yl)-3-methylphenyl)amino)piperidine-2,6-dione], in assay [1], the DC50 came out at 5.97 nM and the Dmax came to 73.7%. In addition, in assay [2], the “Imax (%)” value was 100.2% and the 50% inhibitory concentration (IC50) turned out to be 1.3 nM. In assay [3], this molecule showed a DC50 of 2.64 nM and a Dmax of 79%. Further, in assay [4], the “Imax (%)” value was determined as 98.5% and half-maximal inhibition (IC50) was put at 7.3 nM.
